Where “and” joins values, the source holds several entries; their conditions need not be identical. Identical values can stand only once.

One experiment has as its system PDGF-R. Put plainly: PDGF-R Assay (cellular ELISA, U1242 cells). Format: cell-based. Also on record: concentration or dose not given beside the values. As to conditions: protocol P.119. As for the experimental part: (§1) The cellular/catalytic assays described herein are performed in an ELISA format. The general procedure is as follows: a compound is introduced to cells expressing the test kinase, either naturally or recombinantly, for a selected period of time after which, if the test kinase is a receptor, a ligand known to activate the receptor is added. The cells are lysed and the lysate is transferred to the wells of an ELISA plate previously coated with a specific antibody recognizing the substrate of the enzymatic phosphorylation reaction. Non-substrate components of the cell lysate are washed away and the amount of phosphorylation on the substrate is detected with an antibody specifically recognizing phosphotyrosine compared with control cells that were not contacted with a test compound.
All cell culture media, glutamine, and fetal bovine serum can be purchased from Gibco Life Technologies (Grand Island, N.Y.) unless otherwise specified. All cells are grown in a humid atmosphere of 90-95% air and 5-10% CO2 at 37° C. All cell lines are routinely subcultured twice a week and are negative for mycoplasma as determined by the Mycotect method (Gibco).
For ELISA assays, cells (U1242, obtained from Joseph Schlessinger, NYU) are grown to 80-90% confluency in growth medium (MEM with 10% FBS, NEAA, 1 mM NaPyr and 2 mM GLN) and seeded in 96-well tissue culture plates in 0.5% serum at 25,000 to 30,000 cells per well. After overnight incubation in 0.5% serum-containing medium, cells are changed to serum-free medium and treated with test compound for 2 hr in a 5% CO2, 37° C. incubator. Cells are then stimulated with ligand for 5-10 minute followed by lysis with HNTG (20 mM Hepes, 150 mM NaCl, 10% glycerol, 5 mM EDTA, 5 mM Na3VO4, 0.2% Triton X-100, and 2 mM NaPyr). Cell lysates (0.5 mg/well in PBS) are transferred to ELISA plates previously coated with receptor-specific antibody and which had been blocked with 5% milk in TBST (50 mM Tris-HCl pH 7.2, 150 mM NaCl and 0.1% Triton X-100) at room temperature for 30 min. Lysates are incubated with shaking for 1 hour at room temperature. The plates are washed with TBST four times and then incubated with polyclonal anti-phosphotyrosine antibody at room temperature for 30 minutes. Excess anti-phosphotyrosine antibody is removed by rinsing the plate with TBST four times. Goat anti-rabbit IgG antibody is added to the ELISA plate for 30 min at room temperature followed by rinsing with TBST four more times. ABTS (100 mM citric acid, 250 mM Na2HPO4 and 0.5 mg/mL 2,2′-azino-bis (3-ethylbenzthiazoline-6-sulfonic acid)) plus H2O2 ([…] 30% H2O2 to 10 ml ABTS) is added to the ELISA plates to start color development. Absorbance at 410 nm with a reference wavelength of 630 nm is recorded about 15 to 30 min after ABTS addition.
In general terms: An ELISA detects its analyte on a solid surface through an enzyme-linked reagent.

The test system of a further experiment is FLK-1 receptor. Put plainly: FLK-1 Assay (cellular/catalytic ELISA, VEGF-stimulated phosphotyrosine). It is filed as cell-based. Also on record: concentration or dose not given beside the values. As to conditions: protocol P.110. The protocol: as §1
An ELISA assay is conducted to measure the kinase activity of the FLK-1 receptor and more specifically, the inhibition or activation of TK activity on the FLK-1 receptor. Specifically, the following assay can be conducted to measure kinase activity of the FLK-1 receptor in cells genetically engineered to express Flk-1.
a. Corning 96-well ELISA plates (Corning Catalog No. 25805-96);
b. Cappel goat anti-rabbit IgG (catalog no. 55641);
c. PBS (Gibco Catalog No. 450-1300EB);
d. TBSW Buffer (50 mM Tris (pH 7.2), 150 mM NaCl and 0.1% Tween-20);
e. Ethanolamine stock (10% ethanolamine (pH 7.0), stored at 4° C.);
f. HNTG buffer (20 mM HEPES buffer (pH 7.5), 150 mM NaCl, 0.2% Triton X-100, and 10% glycerol);
g. EDTA (0.5 M (pH 7.0) as a 100× stock);
h. Sodium orthovanadate (0.5 M as a 100× stock);
i. Sodium pyrophosphate (0.2 M as a 100× stock);
j. NUNC 96 well V bottom polypropylene plates (Applied Scientific Catalog No. AS-72092);
k. NIH3T3 C7#3 Cells (FLK-1 expressing cells);
l. DMEM with 1× high glucose L-Glutamine (catalog No. 11965-050);
n. L-glutamine, Gibco (catalog no. 25030-016);
o. VEGF, PeproTech, Inc. (catalog no. 100-20)(kept as 1 μg/100 μl stock in Milli-Q dH2O and stored at −20° C.;
p. Affinity purified anti-FLK-1 antiserum;
q. UB40 monoclonal antibody specific for phosphotyrosine (see, Fendley, et al., 1990, Cancer Research 50:1550-1558);
r. EIA grade Goat anti-mouse IgG-POD (BioRad catalog no. 172-1011);
s. 2,2-azino-bis(3-ethylbenz-thiazoline-6-sulfonic acid (ABTS) solution (100 mM citric acid (anhydrous), 250 mM Na2HPO4 (pH 4.0), 0.5 mg/ml ABTS (Sigma catalog no. A-1888)), solution should be stored in dark at 4° C. until ready for use;
t. H2O2 (30% solution) (Fisher catalog no. H325);
u. ABTS/ H2O2 (15 ml ABTS solution, 2 μl H2O2) prepared 5 minutes before use and left at room temperature;
v. 0.2 M HCl stock in H2O;
w. dimethylsulfoxide (100%) (Sigma Catalog No. D-8418); and
y. Trypsin-EDTA (Gibco BRL Catalog No. 25200-049).
1. Coat Corning 96-well ELISA plates with 1.0 μg per well Cappel Anti-rabbit IgG antibody in 0.1M Na2CO3 pH 9.6. Bring final volume to 150 μl per well. Coat plates overnight at 4° C. Plates can be kept up to two weeks when stored at 4° C.
2. Grow cells in Growth media (DMEM, supplemented with 2.0 mM L-Glutamine, 10% FBS) in suitable culture dishes until confluent at 37° C., 5% CO2.
3. Harvest cells by trypsinization and seed in Corning 25850 polystyrene 96-well round bottom cell plates, 25,000 cells/well in 200 μl of growth media.
4. Grow cells at least one day at 37° C., 5% CO2.
5. Wash cells with D-PBS 1×.
6. Add 200 μl/well of starvation media (DMEM, 2.0 mM 1-Glutamine, 0.1% FBS). Incubate overnight at 37° C., 5% CO2.
7. Dilute Compounds 1:20 in polypropylene 96 well plates using starvation media. Dilute dimethylsulfoxide 1:20 for use in control wells.
8. Remove starvation media from 96 well cell culture plates and add 162 μl of fresh starvation media to each well.
9. Add 18 μl of 1:20 diluted compound dilution (from step 7) to each well plus the 1:20 dimethylsulfoxide dilution to the control wells (+/− VEGF), for a final dilution of 1:200 after cell stimulation. Final dimethylsulfoxide is 0.5%. Incubate the plate at 37° C., 5% CO2 for two hours.
10. […]

Regarding `Cc1c(Br)cc(Br)c2c1C(=CC1COc3ccccc3O1)C(=O)N2` (racemic) [10739/H05], the “PDGF Kinase % Inhibition (P.119)” value in the experiment on PDGF-R is −5.0% and −6.4%. In addition, the “Flk Kinase % Inhibition (P.110)” value with FLK-1 receptor was 5.3% and 10.0%.

The values above are taken from patent publication US20020026053A1, “Novel 3-(substituted) -2- indolinones compounds and use thereof as inhibitors of protein kinase activity” (priority 1997, published 2002).
